Earlier results, collected in article PMC12704579, “New Anticancer 4‐Aryldihydropyrimidinone‐5‐Carboxylates Targeting Hsp90” (Chemical Biology & Drug Design, 2025).

Columns and labels:
HCC1954 cells = tested on: HCC1954 cells; design: method as in Bordoni [2016]; settings: invasive breast cancer cell line HCC1954; ref Bordoni [2016]; cited from earlier work
Bcl3-p50 = tested on: Bcl3-p50; design: method as in Soukupová [2013]; settings: ref Soukupová [2013]; cited from earlier work

## CCOc1cc(C2NC(=O)NC(C)=C2C(=O)OCc2ccc3c(c2)OCO3)ccc1O (centres unmarked) [Compound 1]
HCC1954 cells
  Inhibitory activity in colony forming assay, HCC1954: potent inhibitory activity
Bcl3-p50
  Activity within the Bcl3-binding assays: not active
